In publication PMC5874699, “Antimicrobial and Antibiofilm Activity of UP-5, an Ultrashort Antimicrobial Peptide Designed Using Only Arginine and Biphenylalanine” (Pharmaceuticals, 2018):

Experiments:
S. aureus (ATCC 43300) [1] = assay type: cell-based, Staphylococcus aureus; conditions: S. aureus ATCC 43300, antibiotic alone, triplicate; for Antibiotics MBC Alone: 99.9% killing; for Antibiotics MIC Alone: microbroth dilution
Source text: (§1) All bacterial susceptibility, biofilm, and synergistic assays of peptides, antibiotics, and peptides-antibiotics combinations used bacterial strains obtained from the American Type Tissue Culture Collection (ATCC, Manassas, VA, USA) that states the mechanism of resistance for each strain according to ATCC number. Gram-positive bacteria were represented by five strains, the wild type strain Staphylococcus aureus (ATCC 29213) and methicillin-resistant S. aureus (MRSA) (ATCC 33591) in addition to clinically isolated strains S. aureus (ATCC BAA-41& 43300) and Enterococcus faecalis (ATCC BAA-2316). The Gram-negative bacteria strains were represented by wild type strains of Escherichia coli (ATCC 25922 & 35218) and Pseudomonas aeruginosa (ATCC 27853) as well as the clinically isolated multidrug-resistant strain P. aeruginosa (ATCC BAA-2114). The bacteria were cultured onto Muller Hinton Agar (Scharlab, S.L, Barcelona, Spain). Mueller Hinton Broth (Oxoid Ltd., Basingstoke, UK) was used to prepare all bacterial suspensions and to dissolve the peptides and the antibiotics. The assay was performed in sterile 96-well polypropylene microtiter plates.
(§2) All bacterial susceptibility assays were conducted according to the microbroth dilution method outlined by the Clinical and Laboratory Standards Institute (CLSI) guidelines.
(§3) Briefly, pre-sterilized MHB was used as a growth medium for organisms obtained from stock media with glycerol. Bacterial cells were grown overnight in MHB and diluted to 10^6 CFU/mL in the same medium prior to use. For peptide, serial concentrations in the range of 0.5–100 μM were prepared. Then, 50 μL of each peptide concentration and 50 µL of diluted bacterial suspension were added to each well of a 96-well microtiter plate. Peptide solutions were prepared by dissolving the peptide in sterile MHB. Then, the plates were incubated overnight in a humidified atmosphere, and at 37 °C. Bacterial growth was determined by measuring the optical density (OD) at λ = 600 nm using an ELISA plate reader (Epoch, BioTek, Winooski, VT, USA) and the minimum inhibitory concentration (MIC) was determined.
(§4) As described in the previous section, the MIC and MBC values of antibiotics employed in this study were determined against subjected bacterial strains via preparing different concentrations of each antibiotic.

S. aureus (ATCC BAA-41) [2] = assay type: cell-based, Staphylococcus aureus; conditions: S. aureus ATCC BAA-41, antibiotic alone, triplicate; for Antibiotics MBC Alone: 99.9% killing; for Antibiotics MIC Alone: microbroth dilution
Source text: as §1, §2, §3, §4

[3] = tested on: methicillin-resistant S. aureus (MRSA) (ATCC 33591); assay: MIC/MBC, microbroth dilution (CLSI); assay type: cell-based, Staphylococcus aureus; conditions: S. aureus ATCC 33591, antibiotic alone, triplicate; for Antibiotics MBC Alone: 99.9% killing; for Antibiotics MIC Alone: microbroth dilution
Source text: as §1, §2, §3, §4

S. aureus (ATCC 43300) [4] = assay: Broth microdilution checkerboard, UP-5 with antibiotics; assay type: cell-based, Staphylococcus aureus; conditions: for Effect of the combination according to FIC value: S. aureus (ATCC 43300); for Effect of the combination according to FIC value / FIC Index: antibiotic-UP-5 combination; for Antibiotics MIC in Combination / FIC Index: S. aureus ATCC 43300; for Antibiotics MIC in Combination: antibiotic in combination with UP-5, checkerboard, triplicate; for FIC Index: checkerboard
Source text: as §1
(§5) According to the broth microdilution checkerboard technique, the MIC and MBC values of peptide-antibiotics combinations against wild type and multidrug resistant bacterial strains were determined. Serial concentrations of peptide and each antibiotic were prepared in the range of 0.005–100 μM. In each well of a 96-well microtiter plate, 25 μL of each peptide concentration were added to 25 μL of each antibiotic concentration which is followed by adding 50 μL of diluted bacterial suspension (10^6 CFU/mL) to each well. The prepared concentrations of peptide and each antibiotic were arranged into rows and columns, respectively, in a 96-well microtiter plate according the checkerboard technique. Then as described previously (see Section 2.4.1), the procedure was followed. All MIC and MBC determinations of all assays were made in triplicate.
(§6) The fractional inhibitory concentration (FIC) is defined as the inhibitory concentration of the antimicrobial combination divided by that of the single antimicrobial component. To calculate FIC index for peptide-antibiotic combinations, the following equation was used:(1) FIC index=MIC of drug X in combination/MIC of drug X alone+MIC of drug Y in combination/MIC of drug Y alone
(§7) The FIC indices were interpreted as follows: ≤0.5: synergistic activity, 0.5–1: additive activity, 1–4 indifferent, >4: antagonism. Interpretation and assessment of the FIC indices were performed according to the broth microdilution checkerboard technique.

S. aureus (ATCC 33591) = assay: as above; assay type: cell-based, Staphylococcus aureus; conditions: for Effect of the combination according to FIC value: S. aureus (ATCC 33591); for Effect of the combination according to FIC value / FIC Index: antibiotic-UP-5 combination; for Antibiotics Reduction in MIC (%) / Antibiotics MIC in Combination / FIC Index: S. aureus ATCC 33591; for Antibiotics Reduction in MIC (%): antibiotic MIC in combination with UP-5 compared to MIC alone; for Antibiotics MIC in Combination: antibiotic in combination with UP-5, checkerboard, triplicate; for FIC Index: checkerboard
Source text: as §1, §5, §6, §7

S. aureus (ATCC BAA-41) [5] = assay: as above; assay type: cell-based, Staphylococcus aureus; conditions: for Effect of the combination according to FIC value: S. aureus (ATCC BAA-41); for Effect of the combination according to FIC value / FIC Index: antibiotic-UP-5 combination; for Antibiotics Reduction in MIC (%) / Antibiotics MIC in Combination / FIC Index: S. aureus ATCC BAA-41; for Antibiotics Reduction in MIC (%): antibiotic MIC in combination with UP-5 compared to MIC alone; for Antibiotics MIC in Combination: antibiotic in combination with UP-5, checkerboard, triplicate; for FIC Index: checkerboard
Source text: as §1, §5, §6, §7

S. aureus (ATCC 29213) = assay: as above; assay type: cell-based, Staphylococcus aureus; conditions: for Effect of the combination according to FIC value: S. aureus (ATCC 29213); for Effect of the combination according to FIC value / FIC Index: antibiotic-UP-5 combination; for Antibiotics Reduction in MIC (%) / Antibiotics MIC in Combination / FIC Index: S. aureus ATCC 29213; for Antibiotics Reduction in MIC (%): antibiotic MIC in combination with UP-5 compared to MIC alone; for Antibiotics MIC in Combination: antibiotic in combination with UP-5, checkerboard, triplicate; for FIC Index: checkerboard
Source text: as §1, §5, §6, §7

[6] = tested on: Staphylococcus aureus (ATCC 29213); assay type: cell-based; conditions: S. aureus ATCC 29213, antibiotic alone, triplicate; for Antibiotics MBC Alone: 99.9% killing; for Antibiotics MIC Alone: microbroth dilution
Source text: as §1, §2, §3, §4

[7] = tested on: P. aeruginosa (ATCC BAA-2114); assay type: cell-based, Pseudomonas aeruginosa; conditions: P. auroginosa ATCC BAA-2114, antibiotic alone, triplicate; for Antibiotics MBC Alone: 99.9% killing; for Antibiotics MIC Alone: microbroth dilution
Source text: as §1, §2, §3, §4

[8] = tested on: P. aeruginosa (ATCC BAA-2114); assay: Broth microdilution checkerboard, UP-5 with antibiotics; assay type: cell-based, Pseudomonas aeruginosa; conditions: for Effect of the combination according to FIC value: P. aeruginosa (ATCC 2114 as printed); for Effect of the combination according to FIC value / FIC Index: antibiotic-UP-5 combination; for Antibiotics Reduction in MIC (%) / Antibiotics MIC in Combination / FIC Index: P. auroginosa ATCC BAA-2114; for Antibiotics Reduction in MIC (%): antibiotic MIC in combination with UP-5 compared to MIC alone; for Antibiotics MIC in Combination: antibiotic in combination with UP-5, checkerboard, triplicate; for FIC Index: checkerboard
Source text: as §1, §5, §6, §7

## C[C@H]1COc2c(N3CCN(C)CC3)c(F)cc3c(=O)c(C(=O)O)cn1c23 [Levofloxacin, levofloxacin]
S. aureus (ATCC 43300) [1]
  Antibiotics MBC Alone: 20 µM
  Antibiotics MIC Alone: 20 µM
S. aureus (ATCC BAA-41) [2]
  Antibiotics MBC Alone: 10 µM
  Antibiotics MIC Alone: 10 µM
[3]
  Antibiotics MBC Alone: 10 µM
  Antibiotics MIC Alone: 10 µM
S. aureus (ATCC 43300) [4]
  Effect of the combination according to FIC value: synergistic (≤0.5: synergistic activity)
  Antibiotics MIC in Combination: 5 µM
  FIC Index: 0.25
S. aureus (ATCC 33591)
  Effect of the combination according to FIC value: synergistic (≤0.5: synergistic activity)
  Antibiotics Reduction in MIC (%): 87.5%
  Antibiotics MIC in Combination: 1.25 µM
  FIC Index: 0.13
S. aureus (ATCC 33591); listed as levofloxacin
  Antibiotics Reduction in MIC (%): 90%
S. aureus (ATCC BAA-41) [5]
  Effect of the combination according to FIC value: indifferent (1–4 indifferent)
  Antibiotics Reduction in MIC (%): <50%
  Antibiotics MIC in Combination: 10 µM
  FIC Index: 2
S. aureus (ATCC 29213)
  Effect of the combination according to FIC value: synergistic (≤0.5: synergistic activity)
  Antibiotics Reduction in MIC (%): 90%
  Antibiotics MIC in Combination: 0.05 µM
  FIC Index: 0.11
S. aureus (ATCC 29213); listed as levofloxacin
  Antibiotics Reduction in MIC (%): 87.5%
[6]
  Antibiotics MBC Alone: 0.5 µM
  Antibiotics MIC Alone: 0.5 µM
[7]
  Antibiotics MBC Alone: 12 µM
  Antibiotics MIC Alone: 12 µM
[8]
  Effect of the combination according to FIC value: additive (0.5–1: additive activity)
  Antibiotics Reduction in MIC (%): 58.3%
  Antibiotics MIC in Combination: 5 µM
  FIC Index: 0.78

## O=C(N[C@H](CO)[C@H](O)c1ccc([N+](=O)[O-])cc1)C(Cl)Cl [Chloramphenicol, chloramphenicol]
S. aureus (ATCC 43300) [1]
  Antibiotics MBC Alone: 20 µM
  Antibiotics MIC Alone: 15 µM
S. aureus (ATCC BAA-41) [2]
  Antibiotics MBC Alone: 30 µM
  Antibiotics MIC Alone: 25 µM
[3]
  Antibiotics MBC Alone: 150 µM
  Antibiotics MIC Alone: 130 µM
S. aureus (ATCC 43300) [4]
  Effect of the combination according to FIC value: additive (0.5–1: additive activity)
  Antibiotics MIC in Combination: 7.5 µM
  FIC Index: 1
S. aureus (ATCC 33591)
  Effect of the combination according to FIC value: additive (0.5–1: additive activity)
  Antibiotics Reduction in MIC (%): 50%
  Antibiotics MIC in Combination: 65 µM
  FIC Index: 1
S. aureus (ATCC BAA-41) [5]
  Effect of the combination according to FIC value: additive (0.5–1: additive activity)
  Antibiotics Reduction in MIC (%): 70%
  Antibiotics MIC in Combination: 7.5 µM
  FIC Index: 0.8
S. aureus (ATCC 29213)
  Effect of the combination according to FIC value: additive (0.5–1: additive activity)
  Antibiotics MIC in Combination: 10 µM
  FIC Index: 0.75
[6]
  Antibiotics MBC Alone: 30 µM
  Antibiotics MIC Alone: 20 µM
[7]
  Antibiotics MBC Alone: 325 µM
  Antibiotics MIC Alone: 200 µM
[8]
  Effect of the combination according to FIC value: synergistic (≤0.5: synergistic activity)
  Antibiotics Reduction in MIC (%): 93.7%
  Antibiotics MIC in Combination: 12.5 µM
  FIC Index: 0.24
